# In US20240350448A1, “DICHLOROACETIC ACID CONJUGATING DIPHENYL ETHANE COMPOUND, AND PREPARATION METHOD AND APPLICATION THEREOF” (SHANGHAI ECUSTBIOMEDICINECOMPANY LTD., priority 2021, published 2024):
# Like-named read-outs stand apart in the source and are kept apart here.
# Key:
# HepG2 cell strain = experiment: In-vitro inhibitory activity against proliferation of tumor cells (CCK8, inhibition rate); type: cell-based, human; conditions: for inhibition at 0.1 µM / inhibition at 1 µM / inhibition at 10 µM: Homo sapiens, 72 hours
# Experimental: (§1) Take cells in logarithmic growth phase for experiments. Digest and count the cells, then make them into a cell suspension in 1×10^5 cells/mL, next seed the cell suspension in a 96-hole plate (100 μL per hole), then place the plate in a 5% CO2 incubator at 37° C. to be incubated for 24 hours. Add a subject with a corresponding concentration into each hole, and concurrently set up a negative control group and a blank group, each of which has 3 holes. After having placed the plate in the incubator for 72 hours, observe the morphologies of cells in each group under a microscope, then add a 10 μL CCK8 solution to each hole, and continue incubating the cells in the incubator for 4 h. Measure the absorbance value at 450 nm, and calculate the inhibition rate of cell proliferation; if P<0.05, the results have statistical significance.
# MCF-7 = experiment: CCK-8 anti-tumor activity, IC50; type: cell-based, human; conditions: for IC50: Homo sapiens, MCF7, MCF-7, 72 hours
# Experimental: as §1, with “hours, measure” for “h. Measure”, “nm. In the test, take cells with 8 concentration gradients respectively, then measure” for “nm, and calculate”, “corresponding to each concentration. Use the GraphPad Prism 5.0 statistical software to treat data, use the t-test software to make a comparison between two groups, and use the One-way Anova (Dunnett) software to make a comparison among multiple groups.” for “of cell proliferation;”, “significance, and then calculate the IC50 value.” for “significance.”
# SGC7901 = experiment: CCK-8 anti-tumor activity, IC50; type: cell-based, human; conditions: for IC50: Homo sapiens, SGC-7901, SGC7901, 72 hours
# Experimental: as §1, with “hours, measure” for “h. Measure”, “nm. In the test, take cells with 8 concentration gradients respectively, then measure” for “nm, and calculate”, “corresponding to each concentration. Use the GraphPad Prism 5.0 statistical software to treat data, use the t-test software to make a comparison between two groups, and use the One-way Anova (Dunnett) software to make a comparison among multiple groups.” for “of cell proliferation;”, “significance, and then calculate the IC50 value.” for “significance.”
# Hela = experiment: CCK-8 anti-tumor activity, IC50; type: cell-based; conditions: Homo sapiens
# Experimental: as §1, with “hours, measure” for “h. Measure”, “nm. In the test, take cells with 8 concentration gradients respectively, then measure” for “nm, and calculate”, “corresponding to each concentration. Use the GraphPad Prism 5.0 statistical software to treat data, use the t-test software to make a comparison between two groups, and use the One-way Anova (Dunnett) software to make a comparison among multiple groups.” for “of cell proliferation;”, “significance, and then calculate the IC50 value.” for “significance.”
# HepG2 = experiment: CCK-8 anti-tumor activity, IC50; type: cell-based; conditions: Homo sapiens
# Experimental: as §1, with “hours, measure” for “h. Measure”, “nm. In the test, take cells with 8 concentration gradients respectively, then measure” for “nm, and calculate”, “corresponding to each concentration. Use the GraphPad Prism 5.0 statistical software to treat data, use the t-test software to make a comparison between two groups, and use the One-way Anova (Dunnett) software to make a comparison among multiple groups.” for “of cell proliferation;”, “significance, and then calculate the IC50 value.” for “significance.”
# SW480 = experiment: CCK-8 anti-tumor activity, IC50; type: cell-based; conditions: Homo sapiens, 72 hours
# Experimental: as §1, with “hours, measure” for “h. Measure”, “nm. In the test, take cells with 8 concentration gradients respectively, then measure” for “nm, and calculate”, “corresponding to each concentration. Use the GraphPad Prism 5.0 statistical software to treat data, use the t-test software to make a comparison between two groups, and use the One-way Anova (Dunnett) software to make a comparison among multiple groups.” for “of cell proliferation;”, “significance, and then calculate the IC50 value.” for “significance.”
# [1] = test system: human hepatoma cell HepG2 xenotransplantation tumor; experiment: Gavage administration, inhibition of xenografted tumors of tumor-bearing nude mice; type: in vivo; conditions: 14 times; for Tumor weight: day 15; for Inhibition rate(%): tumor weight vs model group
# Excerpt: Inoculate the human hepatoma cell strain HepG2 subcutaneously at an armpit of a nude mouse, as to establish a human hepatoma cell HepG2 xenotransplantation tumor model. Take the cells HepG2 in logarithmic growth phase, under sterile conditions, inoculate the cells subcutaneously at right armpits of 55 nude mice. Measure the diameter of the xenograft tumors by a vernier caliper, when the tumors grow to about 100 mm^3, choose 48 tumor-bearing nude mice having an uniform tumor size in a good growth status, then randomly divide them into 8 groups, each of which has 6 mice, namely a model group, a 7a low-dosage group (50 mg/kg), a 7a medium-dosage group (100 mg/kg), a 7a high-dosage group (150 mg/kg), and a sorafenib group (50 mg/kg). Share an isovolumic solvent among the mice in the model group through gavage, administer drugs through gavage once a day. Administer drugs in the 7a low-dosage group, the 7a medium-dosage group, and the 7a high-dosage group once a day at 50 mg/kg, 100 mg/kg, and 150 mg/kg, respectively, to reach 14 times administration in total. Administer drugs in the sorafenib group once a day at 50 mg/kg, to reach 14 times administration in total. Dynamically observe the anti-tumor effect of the subjects by adopting the method of measuring tumor diameters. Measure the tumor diameter on alternate days, while weigh the body weight of nude mice. On the 15th day, kill the mice, then pick away tumor lumps surgically and weigh them, and preserve the tumor tissue in a liquid nitrogen tank, next calculate the tumor inhibition rate (%). Tumor inhibition rate (%)= (tumor weight in the model group-tumor weight in the administration group)/tumor weight in the model group×100%.
# A549 = experiment: CCK-8 anti-tumor activity, IC50; type: cell-based; conditions: Homo sapiens, 72 hours
# Experimental: as §1, with “hours, measure” for “h. Measure”, “nm. In the test, take cells with 8 concentration gradients respectively, then measure” for “nm, and calculate”, “corresponding to each concentration. Use the GraphPad Prism 5.0 statistical software to treat data, use the t-test software to make a comparison between two groups, and use the One-way Anova (Dunnett) software to make a comparison among multiple groups.” for “of cell proliferation;”, “significance, and then calculate the IC50 value.” for “significance.”
# [2] = read-out: IC50 value against the Hela cells
structure (smiles),measurement,setting,value
"COc1ccc(CCc2cc(OC)c(OC)c(OC)c2)cc1OC(=O)CCNC(=O)C(Cl)Cl [8b, 2-methoxy-5-(3,4,5-trimethoxyphenyletyl) phenyl3-(2,2-dichloroacetamide) propionate]",inhibition at 0.1 µM,HepG2 cell strain,37.5 ± 4.49%
same,inhibition at 1 µM,HepG2 cell strain,55.8 ± 4.37%
same,inhibition at 10 µM,HepG2 cell strain,74.2 ± 2.41%
"COc1ccc(CCc2cc(OC)c(OC)c(OC)c2)cc1OC(=O)CNC(=O)C(Cl)Cl [8a, 2-methoxy-5-(3,4,5-trimethoxyphenylethyl) phenyl3-(2,2-dichloroacetamide) acetate]",inhibition at 0.1 µM,HepG2 cell strain,18.5 ± 1.16%
same,inhibition at 1 µM,HepG2 cell strain,30 ± 2.03%
same,inhibition at 10 µM,HepG2 cell strain,45.6 ± 2.53%
CCOc1ccc(CCc2cc(OC)c(OC)c(OC)c2)cc1OC(=O)C(Cl)Cl [7b],inhibitory activity against HepG2 cells (in words),HepG2 cell strain,better than that of erianin
same,inhibition at 0.1 µM,HepG2 cell strain,35.7 ± 2.42%
same,inhibition at 1 µM,HepG2 cell strain,48.4 ± 9.88%
same,inhibition at 10 µM,HepG2 cell strain,73.7 ± 4.7%
"COc1ccc(CCc2cc(OC)c(OC)c(OC)c2)cc1OC(=O)CCCCCNC(=O)C(Cl)Cl [8d, 2-methoxy-5-(3,4,5-trimethoxyphenylethyl) phenyl6-(2,2-dichloroacetamide) hexanoate]",inhibitory activity against HepG2 cells (in words),HepG2 cell strain,good inhibitory activity
same,inhibition at 0.1 µM,HepG2 cell strain,50.9 ± 4.44%
same,inhibition at 1 µM,HepG2 cell strain,73 ± 3.1%
same,inhibition at 10 µM,HepG2 cell strain,90.6 ± 2.33%
same,IC50,MCF-7,0.174 µM
same,inhibitory activity compared with erianin (in words),MCF-7; human breast cancer MCF-7 cell strains,superior to erianin
same,IC50,SGC7901,0.103 µM
same,inhibitory activity compared with erianin (in words),SGC7901; human gastric cancer SGC7901 cell strains,superior to erianin
same,IC50,"Hela; 72 hours, read-out: IC50",0.288 µM
same,IC50,Hela; [2],0.288 µM
same,IC50,"HepG2; 72 hours, read-out: IC50",0.135 µM
same,IC50,SW480,0.326 µM
"CNC(=O)c1cc(Oc2ccc(NC(=O)Nc3ccc(Cl)c(C(F)(F)F)c3)cc2)ccn1 [sorafenib, reference compound]",Tumor weight,[1]; 50 mg/kg gavage once a day,0.581 ± 0.089 g
same,Inhibition rate(%),[1]; 50 mg/kg gavage once a day,59.3%
"COc1ccc(CCc2cc(OC)c(OC)c(OC)c2)cc1OC(=O)CCCNC(=O)C(Cl)Cl [8c, 2-methoxy-5-(3,4,5-trimethoxyphenylethy) phenyl4-(2,2-dichloroacetamide) butyrate]",inhibition at 0.1 µM,HepG2 cell strain,36.1 ± 11.7%
same,inhibition at 1 µM,HepG2 cell strain,68.7 ± 0.72%
same,inhibition at 10 µM,HepG2 cell strain,89.27 ± 0.66%
"COc1ccc(CCc2cc(OC)c(OC)c(OC)c2)cc1OC(=O)C(Cl)Cl [7a, 2-methoxy-5-(3,4,5-trimethoxyphenylethyl) phenyl 2,2-dichloroacetate]",inhibitory activity against HepG2 cells (in words),HepG2 cell strain,good inhibitory activity
same,inhibition at 1 µM,HepG2 cell strain,94.43 ± 0.89%
same,inhibition at 10 µM,HepG2 cell strain,89.3 ± 1.5%
same,IC50,MCF-7,0.655 µM
same,IC50,SGC7901,0.469 µM
same,IC50,A549,0.726 µM
same,IC50,"Hela; 72 hours, read-out: IC50",0.516 µM
same,IC50,Hela; [2],0.516 µM
same,IC50,"HepG2; 72 hours, read-out: IC50",0.0489 µM
same,IC50,HepG2; read-out: IC50 value against the HepG2 cells,0.0489 µM
same,IC50,SW480,0.94 µM
same,Tumor weight,[1]; 50 mg/kg gavage once a day,0.569 ± 0.103 g
same,Inhibition rate(%),[1]; 50 mg/kg gavage once a day,62.0%
same,Tumor weight,[1]; 100 mg/kg gavage once a day,0.479 ± 0.100 g
same,Inhibition rate(%),[1]; 100 mg/kg gavage once a day,72.4%
same,Tumor weight,[1]; 150 mg/kg gavage once a day,0.314 ± 0.076 g
same,Inhibition rate(%),[1]; 150 mg/kg gavage once a day,86.9%
